Reference: US4727080A, “1-substituted derivatives of 6-fluoro-7-(pyrrol-1-yl)-1,4-dihydro-4-oxoquinoline-3-carboxylic acid, their preparation and their application as drugs” (Provesan S.A., priority 1984, dated 1988)
Values after ≈ are worked out from the molar mass of the structure shown. Read-outs that look alike come from different tables or passages of the source.

How the values were obtained:
Proteus morganii CHSP-16 = assay: "In vitro" MIC, Proteus morganii; format: cell-based; settings: Morganella morganii, read-out: "In vitro" MIC
Protocol: (§1) Antimicrobial pharmacological activity (G. L. Daquet and Y. A. Chabbect, Techniques en bacteriologie (Techniques in bacteriology), vol. 3, Flammarion Medecine-Sciences, Paris, 1972, and W. B. Hugo and A. D. Rusell, Pharmaceutical Microbiology, Blackwell Scientific Publications, London (1977).
(§2) A streak culture of each of the microorganisms is formed in tubes of antibiotics agar no. 1 and incubated for 20 hours at 37° C. A culture loop is then taken and a culture is formed in a tryptone-soya broth and incubated for 20 hours at 37° C. The resulting culture is diluted to 1/4 with Ringer's physiological solution to give a standardized suspension of 10^5 ufc/ml for each organism.
(§3) Starting from a solution of 1000 μg/ml in 0.1N NaOH, each product is diluted successively in dextrose agar (melted beforehand and kept at 50° C.) to give the following concentrations: 64-32-16-8-4-2-1-0.5-0.25-0.125 μg of derivative/ml of medium.
(§4) After this, each concentration of each product is divided up into Petri dishes of 10 cm diameter at a rate of 10 ml of medium per dish and using as many dishes as there are microorganisms to be tested.
(§5) Once the medium has cooled, the dishes are treated with the inoculations at a rate of 0.4 ml of inoculation per dish. They are spread out with a Drigalski loop and the supernatant is collected. The inoculated dishes are incubated at 37° C. for 20 hours.

Sarcina lutea ATCC 9341 = assay: "In vitro" MIC, Sarcina lutea; format: cell-based; settings: Micrococcus luteus, read-out: "In vitro" MIC
Protocol: as §1, §2, §3, §4, §5

[1] = test system: Staphylococcus aureus ATCC 25178; assay: "In vitro" MIC, Staphylococcus aureus ATCC 25178; format: cell-based; settings: read-out: "In vitro" MIC
Protocol: as §1
Staphylococcus aureus ATCC 25178
as §2, §3, §4, §5

[2] = test system: Enterobacter aerogenes ATCC 15038; assay: "In vitro" MIC, Enterobacter aerogenes; format: cell-based; settings: Klebsiella aerogenes, read-out: "In vitro" MIC
Protocol: as §1
Enterobacter aerogenes ATCC 15038
as §2, §3, §4, §5

[3] = test system: Klebsiella pneumoniae ATCC 10031; assay: "In vitro" MIC, Klebsiella pneumoniae; format: cell-based; settings: read-out: "In vitro" MIC
Protocol: as §1
Klebsiella pneumoniae ATCC 10031
as §2, §3, §4, §5

Acute toxicity to mice = settings: mouse, in vivo, ip, suspension in 5% gum arabic, mortality over 7 days
Protocol: The experimental animals used to determine this toxicity were albino mice of the C.F.L.P. strain and of both sexes, weighing between 19 and 25 grams. After an 18-hour fasting period with water "ad libitum", the derivatives forming the subject of the present invention are administered intraperitoneally as a suspension in 5% gum arabic. The volume of suspension administered was 0.4 ml/20 grams (20 ml/kg) in all cases, the concentration of the suspension being changed according to the dose administered.
One hour after administration of the derivatives, the animals are given a standard Panlab rat-mouse food. The mortality was observed over a period of 7 days. Differences in mortality between the sexes were not observed with any of the products.

[4] = test system: Bacillus subtilis ATCC 6633; assay: "In vitro" MIC, Bacillus subtilis; format: cell-based; settings: read-out: "In vitro" MIC
Protocol: as §1
Bacillus subtilis ATCC 6633
as §2, §3, §4, §5

[5] = test system: Streptococcus faecalis ATCC 10541; assay: "In vitro" MIC, Streptococcus faecalis; format: cell-based; settings: Enterococcus faecalis, read-out: "In vitro" MIC
Protocol: as §1
Streptococcus faecalis ATCC 10541
as §2, §3, §4, §5

Escherichia coli R-1513 = assay: "In vitro" MIC, Escherichia coli R-1513; format: cell-based; settings: read-out: "In vitro" MIC
Protocol: as §1, §2, §3, §4, §5

[6] = test system: Enterobacteriaceae (Pseudomonas aeruginosa); assay: "In vitro" antimicrobial activity compared with nalidixic acid, Enterobacteriaceae (Pseudomonas aeruginosa); format: cell-based
Protocol: as §1, §2, §3, §4, §5

[7] = test system: Pseudomonas aeruginosa 25115; assay: "In vitro" MIC, Pseudomonas aeruginosa 25115; format: cell-based; settings: read-out: "In vitro" MIC
Protocol: as §1
Pseudomonas aeruginosa 25115
as §2, §3, §4, §5

[8] = test system: Staphylococcus aureus ATCC 5488/23; assay: "In vitro" MIC, Staphylococcus aureus ATCC 5488/23; format: cell-based; settings: read-out: "In vitro" MIC
Protocol: as §1
Staphylococcus aureus ATCC 5488/23
as §2, §3, §4, §5

[9] = test system: Salmonella typhimurium AMES 100; assay: "In vitro" MIC, Salmonella typhimurium AMES 100; format: cell-based; settings: Salmonella enterica, read-out: "In vitro" MIC
Protocol: as §1
Salmonella typhimurium AMES 100
as §2, §3, §4, §5

Shigella flexnerii = assay: "In vitro" MIC, Shigella flexnerii; format: cell-based; settings: 20 h, read-out: "In vitro" MIC
Protocol: as §1, §2, §3, §4, §5

[10] = test system: Enterobacter cloacae CHSP-20; assay: "In vitro" MIC, Enterobacter cloacae; format: cell-based; settings: read-out: "In vitro" MIC
Protocol: as §1
Enterobacter cloacae CHSP-20
as §2, §3, §4, §5

[11] = test system: Citrobacter freundii ATCC 11606; assay: "In vitro" MIC, Citrobacter freundii; format: cell-based; settings: read-out: "In vitro" MIC
Protocol: as §1
Citrobacter freundii ATCC 11606
as §2, §3, §4, §5

[12] = test system: Micrococcus flavus ATCC 10240; assay: "In vitro" MIC, Micrococcus flavus; format: cell-based; settings: read-out: "In vitro" MIC
Protocol: as §1
Micrococcus flavus ATTC 10240
as §2, §3, §4, §5

[13] = test system: Proteus mirabilis ATCC 4675; assay: "In vitro" MIC, Proteus mirabilis; format: cell-based; settings: read-out: "In vitro" MIC
Protocol: as §1
Proteus mirabilis ATCC 4675
as §2, §3, §4, §5

[14] = test system: Escherichia coli ATCC 10536; assay: "In vitro" MIC, Escherichia coli ATCC 10536; format: cell-based; settings: read-out: "In vitro" MIC
Protocol: as §1
Escherichia coli ATCC 10536
as §2, §3, §4, §5

[15] = test system: Salmonella typhimurium AMES 98; assay: "In vitro" MIC, Salmonella typhimurium AMES 98; format: cell-based; settings: Salmonella enterica, read-out: "In vitro" MIC
Protocol: as §1
Salmonella typhimurium AMES 98
as §2, §3, §4, §5

[16] = test system: Serratia marcescens ATTC 13880; assay: "In vitro" MIC, Serratia marcescens; format: cell-based; settings: read-out: "In vitro" MIC
Protocol: as §1
Serratia marcescens ATTC 13880
as §2, §3, §4, §5

Gram-positive cocci = assay: "In vitro" antimicrobial activity compared with nalidixic acid, Gram-positive cocci; format: cell-based
Protocol: as §1, §2, §3, §4, §5

[17] = test system: Pseudomonas aeruginosa ADSA 47; assay: "In vitro" MIC, Pseudomonas aeruginosa ADSA 47; format: cell-based; settings: read-out: "In vitro" MIC
Protocol: as §1
Pseudomonas aeruginosa ADSA 47
as §2, §3, §4, §5

[18] = CHSP16, Proteus morganii CHSP-16, dextrose agar, 37° C., 20 hours
[19] = ATCC9341, Sarcina lutea ATCC 9341, dextrose agar, 37° C., 20 hours
[20] = ATCC25178, Staphylococcus aureus ATCC 25178, dextrose agar, 37° C., 20 hours
[21] = ATCC15038, Enterobacter aerogenes ATCC 15038, dextrose agar, 37° C., 20 hours
[22] = ATCC10031, Klebsiella pneumoniae ATCC 10031, dextrose agar, 37° C., 20 hours
[23] = ATCC6633, Bacillus subtilis ATCC 6633, dextrose agar, 37° C., 20 hours
[24] = ATCC10541, Streptococcus faecalis ATCC 10541, dextrose agar, 37° C., 20 hours
[25] = R1513, Escherichia coli R-1513, dextrose agar, 37° C., 20 hours
[26] = Pseudomonas aeruginosa 25115, dextrose agar, 37° C., 20 hours
[27] = ATCC5488, Staphylococcus aureus ATCC 5488/23, dextrose agar, 37° C., 20 hours
[28] = Salmonella typhimurium AMES 100, dextrose agar, 37° C., 20 hours
[29] = CHSP20, Enterobacter cloacae CHSP-20, dextrose agar, 37° C., 20 hours
[30] = ATCC11606, Citrobacter freundii ATCC 11606, dextrose agar, 37° C., 20 hours
[31] = ATCC10240, Micrococcus flavus ATCC 10240, dextrose agar, 37° C., 20 hours
[32] = ATCC4675, Proteus mirabilis ATCC 4675, dextrose agar, 37° C., 20 hours
[33] = ATCC10536, Escherichia coli ATCC 10536, dextrose agar, 37° C., 20 hours
[34] = Salmonella typhimurium AMES 98, dextrose agar, 37° C., 20 hours
[35] = ATTC13880, Serratia marcescens ATTC 13880, dextrose agar, 37° C., 20 hours
[36] = ADSA47, Pseudomonas aeruginosa ADSA 47, dextrose agar, 37° C., 20 hours

SMILES	MIC (Proteus morganii CHSP-16; [18])	MIC (Sarcina lutea ATCC 9341; [19])	MIC [1, 20]	MIC [2, 21]	MIC [3, 22]	LD50 at 168 h (Acute toxicity to mice)	MIC [4, 23]	MIC [5, 24]	MIC (Escherichia coli R-1513; [25])	"in vitro" activity compared with nalidixic acid [6]	MIC [7, 26]	MIC [8, 27]	MIC [9, 28]	MIC (Shigella flexnerii)	MIC [10, 29]	MIC [11, 30]	MIC [12, 31]	MIC [13, 32]	MIC [14, 33]	MIC [15, 34]	other results
O=C(O)c1cn(CCO)c2cc(-n3cccc3)c(F)cc2c1=O [Example 2, 6-fluoro-7-(pyrrol-1-yl)-1-(2-hydroxyethyl)-4-oxo-1,4-dihydroquinoline-3-carboxylic acid]	1 µg/mL (≈ 3.16 µM)	16 µg/mL (≈ 50.6 µM)	0.5 µg/mL (≈ 1.58 µM)	2 µg/mL (≈ 6.32 µM)	0.062 µg/mL (≈ 0.196 µM)	> 1600 mg/kg	≤ 0.062 µg/mL	1 µg/mL (≈ 3.16 µM)	1 µg/mL (≈ 3.16 µM)	greater "in vitro" activity than nalidixic acid	16 µg/mL (≈ 50.6 µM)	0.5 µg/mL (≈ 1.58 µM)	0.25 µg/mL (≈ 0.79 µM)	1 µg/mL (≈ 3.16 µM)	1 µg/mL (≈ 3.16 µM)	1 µg/mL (≈ 3.16 µM)	16 µg/mL (≈ 50.6 µM)	1 µg/mL (≈ 3.16 µM)	0.125 µg/mL (≈ 0.395 µM)	0.25 µg/mL (≈ 0.79 µM)	MIC [16, 35]: 1 µg/mL (≈ 3.16 µM); "in vitro" activity compared with nalidixic acid (Gram-positive cocci): greater "in vitro" activity than nalidixic acid; MIC [17, 36]: ≥ 32 µg/mL
C=Cn1cc(C(=O)O)c(=O)c2cc(F)c(-n3cccc3)cc21 [Example 3, 6-fluoro-7-(pyrrol-1-yl)-1-vinyl-4-oxo-1,4-dihydroquinoline-3-carboxylic acid]	2 µg/mL (≈ 6.71 µM)	8 µg/mL (≈ 26.8 µM)	0.5 µg/mL (≈ 1.68 µM)	1 µg/mL (≈ 3.35 µM)	0.5 µg/mL (≈ 1.68 µM)	> 1600 mg/kg	≤ 0.062 µg/mL	16 µg/mL (≈ 53.6 µM)	1 µg/mL (≈ 3.35 µM)	greater "in vitro" activity than nalidixic acid	4 µg/mL (≈ 13.4 µM)	0.5 µg/mL (≈ 1.68 µM)	0.5 µg/mL (≈ 1.68 µM)	1 µg/mL (≈ 3.35 µM)	1 µg/mL (≈ 3.35 µM)	1 µg/mL (≈ 3.35 µM)	4 µg/mL (≈ 13.4 µM)	2 µg/mL (≈ 6.71 µM)	0.125 µg/mL (≈ 0.419 µM)	≤ 0.062 µg/mL	MIC [16, 35]: 1 µg/mL (≈ 3.35 µM); "in vitro" activity compared with nalidixic acid (Gram-positive cocci): greater "in vitro" activity than nalidixic acid; MIC [17, 36]: 8 µg/mL (≈ 26.8 µM)
CCn1cc(C(=O)O)c(=O)c2ccc(C)nc21 [Nalidixic acid, reference compound]														2 µg/mL (≈ 8.61 µM)							MIC (Proteus morganii CHSP-16; CHSP16, 20 h): 1 µg/mL (≈ 4.31 µM); MIC (Sarcina lutea ATCC 9341; ATCC9341, 20 h): 128 µg/mL (≈ 551 µM); MIC ([1]; Staphylococcus aureus, ATCC25178, 20 h): ≥ 64 µg/mL; MIC ([2]; ATCC15038, 20 h): 4 µg/mL (≈ 17.2 µM); MIC ([3]; Klebsiella pneumoniae, ATCC10031, 20 h): 1 µg/mL (≈ 4.31 µM); MIC ([4]; Bacillus subtilis, ATCC6633, 20 h): 1 µg/mL (≈ 4.31 µM); MIC ([5]; ATCC10541, 20 h): ≥ 64 µg/mL; MIC (Escherichia coli R-1513; Escherichia coli, R1513, 20 h): 4 µg/mL (≈ 17.2 µM); MIC ([7]; Pseudomonas aeruginosa, 25115, 20 h): ≥ 128 µg/mL; MIC ([8]; Staphylococcus aureus, ATCC5488, 20 h): 32 µg/mL (≈ 138 µM); MIC ([9]; TYPHIMURIUM, 20 h): 0.5 µg/mL (≈ 2.15 µM); MIC ([10]; Enterobacter cloacae, CHSP20, 20 h): 4 µg/mL (≈ 17.2 µM); MIC ([11]; Citrobacter freundii, ATCC11606, 20 h): 4 µg/mL (≈ 17.2 µM); MIC ([12]; Micrococcus flavus, ATCC10240, 20 h): 128 µg/mL (≈ 551 µM); MIC ([13]; Proteus mirabilis, ATCC4675, 20 h): 8 µg/mL (≈ 34.4 µM); MIC ([14]; Escherichia coli, ATCC10536, 20 h): 0.25 µg/mL (≈ 1.08 µM); MIC ([15]; TYPHIMURIUM, 20 h): 0.5 µg/mL (≈ 2.15 µM); MIC ([16]; Serratia marcescens, ATTC13880, 20 h): 1 µg/mL (≈ 4.31 µM); MIC ([17]; Pseudomonas aeruginosa, ADSA47, 20 h): ≥ 128 µg/mL
